This note sets out measurements from US11427606B2, “Azithromycin derivatives containing a phosphonium ion as anticancer agents” (Rising Tide Foundation, priority 2017, dated 2022).

The assay concerns MDA-231 cancer cells. The experiment in a line: Inhibition of proliferation assay: cell confluence (IncuCyte imaging). It is filed as cell-based. The following applies: compound at 10 uM; MDA-231 cells; IncuCyte images every 3 h over 4-5 d; relative confluence normalised to time zero. The method in brief:
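MDA-231 cancer cells from ATCC were grown in DMEM with 10% FBS, 2 mM Glutamax, 1 mM NEAA and 1 mM sodium pyruvate. An IncuCyte Live Cell Imaging microscope with a 10× objective imaged one field per well every 3 h for 4-5 d. Its built-in algorithm computed percent confluence as a proliferation surrogate, and values were normalised to each sample's time-zero value.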
As for `CC[C@H]1OC(=O)[C@H](C)[C@@H](O[C@H]2C[C@@](C)(OC)[C@@H](O)[C@H](C)O2)[C@H](C)[C@@H](O[C@@H]2O[C@H](C)C[C@H](N(C)C)[C@H]2O)[C@](C)(O)C[C@@H](C)CN(C(=O)CCCCCCCCCCC[PH](c2cccc(C)c2)(c2cccc(C)c2)c2cccc(C)c2)[C@H](C)[C@@H](O)[C@]1(C)O` [Example 30, {12-[(2R,3S,4R,5R,8R,10R,11R,12S,13S,14R)-11-{[(2S,3R,4S,6R)-4-(dimethylamino)-3-hydroxy-6-methyloxan-2-yl]oxy}-2-ethyl-3,4,10-trihydroxy-13-{[(2R,4R,5S,6S)-5-hydroxy-4-methoxy-4,6-dimethyloxan-2-yl]oxy}-3,5,8,10,12,14-hexamethyl-15-oxo-1-oxa-6-azacyclopentadecan-6-yl]-12-oxododecyl}tris(3-methylphenyl)phosphonium chloride], the “% Confluence” value was 4.4%.
For `CC[C@H]1OC(=O)[C@H](C)[C@@H](O[C@H]2C[C@@](C)(OC)[C@@H](O)[C@H](C)O2)[C@H](C)[C@@H](O[C@@H]2O[C@H](C)C[C@H](N(C)C)[C@H]2O)[C@](C)(O)C[C@@H](C)CN(C(=O)CCCCCCCCCCC[PH](c2ccccc2)(c2ccccc2)C2COC2)[C@H](C)[C@@H](O)[C@]1(C)O` [Example 32, {12-[(2R,3S,4R,5R,8R,10R,11R,12S,13S,14R)-11-{[(2S,3R,4S,6R)-4-(dimethylamino)-3-hydroxy-6-methyloxan-2-yl]oxy}-2-ethyl-3,4,10-trihydroxy-13-{[(2R,4R,5S,6S)-5-hydroxy-4-methoxy-4,6-dimethyloxan-2-yl]oxy}-3,5,8,10,12,14-hexamethyl-15-oxo-1-oxa-6-azacyclopentadecan-6-yl]-12-oxododecyl}(oxetan-3-yl)diphenylphosphonium chloride], the “% Confluence” value worked out at 129%.
The value for `CC[C@H]1OC(=O)[C@H](C)[C@@H](O[C@H]2C[C@@](C)(OC)[C@@H](O)[C@H](C)O2)[C@H](C)[C@@H](O[C@@H]2O[C@H](C)C[C@H](N(C)C)[C@H]2O)[C@](C)(O)C[C@@H](C)CN(C(=O)CCCCCCCCCCC[PH](c2ccccc2)(c2ccccc2)C(C)C)[C@H](C)[C@@H](O)[C@]1(C)O` [Example 33, {12-[(2R,3S,4R,5R,8R,10R,11R,12S,13S,14R)-11-{[(2S,3R,4S,6R)-4-(dimethylamino)-3-hydroxy-6-methyloxan-2-yl]oxy}-2-ethyl-3,4,10-trihydroxy-13-{[(2R,4R,5S,6S)-5-hydroxy-4-methoxy-4,6-dimethyloxan-2-yl]oxy}-3,5,8,10,12,14-hexamethyl-15-oxo-1-oxa-6-azacyclopentadecan-6-yl]-12-oxododecyl}diphenyl(propan-2-yl)phosphonium chloride] was 5.6%; that for `CC[C@H]1OC(=O)[C@H](C)[C@@H](O[C@H]2C[C@@](C)(OC)[C@@H](O)[C@H](C)O2)[C@H](C)[C@@H](O[C@@H]2O[C@H](C)C[C@H](N(C)C)[C@H]2O)[C@](C)(O)C[C@@H](C)CN(C(=O)CCCCCCCCCCC[PH](CCOC)(c2ccccc2)c2ccccc2)[C@H](C)[C@@H](O)[C@]1(C)O` [Example 34, {12-[(2R,3S,4R,5R,8R,10R,11R,12S,13S,14R)-11-{[(2S,3R,4S,6R)-4-(dimethylamino)-3-hydroxy-6-methyloxan-2-yl]oxy}-2-ethyl-3,4,10-trihydroxy-13-{[(2R,4R,5S,6S)-5-hydroxy-4-methoxy-4,6-dimethyloxan-2-yl]oxy}-3,5,8,10,12,14-hexamethyl-15-oxo-1-oxa-6-azacyclopentadecan-6-yl]-12-oxododecyl}(2-methoxyethyl)diphenylphosphonium chloride] was 5.4%; that for `CC[C@H]1OC(=O)[C@H](C)[C@@H](O[C@H]2C[C@@](C)(OC)[C@@H](O)[C@H](C)O2)[C@H](C)[C@@H](O[C@@H]2O[C@H](C)C[C@H](N(C)C)[C@H]2O)[C@](C)(O)C[C@@H](C)CN(C(=O)CCCCCCCCCCC[PH](c2ccccc2)(c2ccccc2)C2CCOCC2)[C@H](C)[C@@H](O)[C@]1(C)O` [Example 35, {12-[(2R,3S,4R,5R,8R,10R,11R,12S,13S,14R)-11-{[(2S,3R,4S,6R)-4-(dimethylamino)-3-hydroxy-6-methyloxan-2-yl]oxy}-2-ethyl-3,4,10-trihydroxy-13-{[(2R,4R,5S,6S)-5-hydroxy-4-methoxy-4,6-dimethyloxan-2-yl]oxy}-3,5,8,10,12,14-hexamethyl-15-oxo-1-oxa-6-azacyclopentadecan-6-yl]-12-oxododecyl}(oxan-4-yl)diphenylphosphonium chloride] was 97.2%.
For the compound `CC[C@H]1OC(=O)[C@H](C)[C@@H](O[C@H]2C[C@@](C)(OC)[C@@H](O)[C@H](C)O2)[C@H](C)[C@@H](O[C@@H]2O[C@H](C)C[C@H](N(C)C)[C@H]2OC(C)=O)[C@](C)(O)C[C@@H](C)CN(C)[C@H](C)[C@@H](OC(=O)NCCCCCCCCCC[P+](C)(C)c2ccccc2)[C@]1(C)O.[Br-]` [Example 38, (2S,3R,4S,6R)-2-{[(2R,3R,4R,5R,8R,10R,11R,12S,13S,14R)-4-[({10-[dimethyl(phenyl)phosphoniumyl]decyl}carbamoyl)oxy]-2-ethyl-3,10-dihydroxy-13-{[(2R,4R,5S,6S)-5-hydroxy-4-methoxy-4,6-dimethyloxan-2-yl]oxy}-3,5,6,8,10,12,14-heptamethyl-15-oxo-1-oxa-6-azacyclopentadecan-11-yl]oxy}-4-(dimethylamino)-6-methyloxan-3-yl acetate bromide], the “% Confluence” value was found to be 135%.
In the case of “tris(4-chlorophenyl)({8-[(2R,3S,4R,5R,8R,10R,11R,12S,13S,14R)-11-{[(2S,3R,4S,6R)-4-(dimethylamino)-3-hydroxy-6-methyloxan-2-yl]oxy}-2-ethyl-3,4,10-trihydroxy-13-{[(2R,4R,5S,6S)-5-hydroxy-4-methoxy-4,6-dimethyloxan-2-yl]oxy}-3,5,8,10,12,14-hexamethyl-15-oxo-1-oxa-6-azacyclopentadecan-6-yl]-8-oxooctyl})phosphoniumhexafluorophosphate(V) [Example 4]”, the “% Confluence” value stood at 87.7%.
